Laboratory results as given in publication PMC7271668 (Frontiers in Pharmacology, 2020).
Several values for one entry are separate records, joined by “and”; a condition that tells them apart may be missing. Equal entries are not always repeated. Where two headings read alike, the source gives them in different places.

Key:
[1] = biological target: T1, human OAT3 (Homo sapiens, UniProt Q8TCC7); experiment: Inhibition of OAT3-mediated enalaprilat uptake in OAT3-transfected HEK293 cells
T1 sequence (Q8TCC7 1-542): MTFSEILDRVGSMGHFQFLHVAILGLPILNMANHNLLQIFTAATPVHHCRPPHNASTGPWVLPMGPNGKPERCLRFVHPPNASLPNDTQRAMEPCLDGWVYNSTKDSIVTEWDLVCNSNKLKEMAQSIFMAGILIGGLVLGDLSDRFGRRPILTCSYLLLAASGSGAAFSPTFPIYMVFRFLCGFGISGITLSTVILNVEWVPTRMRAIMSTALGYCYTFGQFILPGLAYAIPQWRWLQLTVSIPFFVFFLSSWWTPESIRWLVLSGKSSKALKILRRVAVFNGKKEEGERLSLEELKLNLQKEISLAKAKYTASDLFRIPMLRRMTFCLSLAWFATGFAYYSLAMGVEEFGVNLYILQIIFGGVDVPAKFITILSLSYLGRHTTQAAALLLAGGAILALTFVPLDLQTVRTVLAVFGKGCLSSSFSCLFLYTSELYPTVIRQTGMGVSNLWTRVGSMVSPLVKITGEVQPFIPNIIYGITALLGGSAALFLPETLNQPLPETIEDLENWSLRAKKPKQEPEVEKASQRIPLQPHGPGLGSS
Experimental: Because the present study examined a number of compounds with structural diversity, a 30 min preincubation was carried out for all compounds in order to eliminate inconsistencies. […] OAT3-transfected HEK293 cells or mock cells were washed thrice with pre-warmed HBSS and preincubated with HBSS containing different concentrations of inhibitors for 30 min at 37°C.
For sample preparation before analysis, 100 μl acetonitrile containing 500 nM tolbutamide (internal standard, IS) was added as a protein-precipitating agent to 50-μl cell samples. All samples were vortexed for 2 min and centrifuged at 13,000 rpm for 10 min. Ten microliters of the supernatants were transferred into injection vials for concentration determination.
The LC-MS/MS system consisted of an API 4000 Qtrap mass spectrometer equipped with a turbo-V ionization source (Applied Biosystems, Foster City, CA, USA), two LC-20AD pumps with a CBM-20A controller, a DGU-20A solvent degasser, and a SIL-20A autosampler (Shimadzu, Columbia, MD, USA). A reverse phase C18 column (50×2.1 mm, 5 µm particle size; Agela, China) and a gradient elution at 0.3 ml/min were employed for chromatographic separation. […] Analyst 1.6.3 (AB SCIEX, USA) was used to collect and process the data.
where I was the inhibitor concentration.

[2] = cited from earlier work; for Excreted into the urine, % of the dose: after oral administration of enalapril, MacFadyen et al., 1993
[3] = biological target: T1, human OAT3; experiment: Enalaprilat uptake kinetics in HEK293 cells overexpressing human OAT3; assay type: in vitro ADME; design: expressed in transfected cells; gift of Prof; Dafang Zhong, Shanghai Institute of Materia Medica
Experimental: (§1) Human embryonic kidney 293 (HEK293) cells stably overexpressing human OAT1, OAT3, organic cation transporter 2 (OCT2), OATP1B1, OATP1B3 or OATP2B1 as well as empty vectors were generously provided by Professor Dafang Zhong, Shanghai Institute of Materia Medica, Chinese Academy of Sciences (Shanghai, China). Respective transport activities had been validated using specific probe substrates ([Zhong et al., 2014]). All cells were grown in DMEM supplemented with 10% FBS, at 37°C with 5% CO2 and 95% humidity.
(§2) Cells were seeded in 24-well plates at a density of 200,000 cells per well and cultured in high glucose DMEM for 48 h. On the third day and prior to the start of the uptake experiment, cells were washed thrice with pre-warmed HBSS and then incubated with HBSS for 30 min at 37°C. […] Incubations were terminated 5 min after the addition of substrate by washing with ice-cold HBSS. Cells were immediately lysed with 200 μl ultrapure water by repeated freezing and thawing up to three times. Intracellular drug concentrations were determined using a liquid chromatography - tandem mass spectrometry (LC-MS/MS) method. Cellular protein levels were estimated using the Bicinchoninine acid assay per manufacturer’s instruction (Takara, Japan).
(§3) Kinetic parameters of transporter-mediated uptake were estimated by nonlinear regression analysis using GraphPad Prism 5.01 (La Jolla, CA, USA). […]

[4] = biological target: T2, human OATP2B1 (Homo sapiens, UniProt O94956); experiment: Enalaprilat uptake kinetics in HEK293 cells overexpressing human OATP2B1; assay type: in vitro ADME; details: OATP2B1-transfected HEK293, net uptake (mock subtracted), enalaprilat 0-500 μM, 5 min incubation
T2 construct: expressed in transfected cells; gift of Prof; Dafang Zhong, Shanghai Institute of Materia Medica
T2 sequence (O94956 1-709): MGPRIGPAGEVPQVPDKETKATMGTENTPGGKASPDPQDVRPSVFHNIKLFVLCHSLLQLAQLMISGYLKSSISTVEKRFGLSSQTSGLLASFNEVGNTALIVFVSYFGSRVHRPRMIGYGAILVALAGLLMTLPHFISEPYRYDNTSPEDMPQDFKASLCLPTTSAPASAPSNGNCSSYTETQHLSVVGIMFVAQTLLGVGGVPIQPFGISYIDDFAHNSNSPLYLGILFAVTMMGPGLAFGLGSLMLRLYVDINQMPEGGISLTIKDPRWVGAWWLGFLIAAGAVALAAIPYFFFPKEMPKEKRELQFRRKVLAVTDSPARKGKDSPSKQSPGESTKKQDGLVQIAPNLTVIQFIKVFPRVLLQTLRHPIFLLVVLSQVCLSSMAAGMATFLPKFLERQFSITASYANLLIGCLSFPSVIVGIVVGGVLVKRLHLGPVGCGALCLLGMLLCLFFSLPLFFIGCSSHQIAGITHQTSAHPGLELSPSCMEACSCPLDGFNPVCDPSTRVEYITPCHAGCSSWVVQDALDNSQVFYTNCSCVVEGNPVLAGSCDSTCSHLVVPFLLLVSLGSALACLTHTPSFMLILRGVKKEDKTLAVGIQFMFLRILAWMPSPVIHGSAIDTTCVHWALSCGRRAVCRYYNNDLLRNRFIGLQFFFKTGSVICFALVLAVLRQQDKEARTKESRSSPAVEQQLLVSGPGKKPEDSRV
Experimental: as §1, §2, §3

[5] = biological target: T3, human OAT1 (Homo sapiens, UniProt Q4U2R8); experiment: Enalaprilat uptake kinetics in HEK293 cells overexpressing human OAT1; assay type: in vitro ADME; details: OAT1-transfected HEK293, net uptake (mock subtracted), enalaprilat 0-500 μM, 5 min incubation
T3 construct: expressed in transfected cells; gift of Prof; Dafang Zhong, Shanghai Institute of Materia Medica
T3 sequence (Q4U2R8 1-563): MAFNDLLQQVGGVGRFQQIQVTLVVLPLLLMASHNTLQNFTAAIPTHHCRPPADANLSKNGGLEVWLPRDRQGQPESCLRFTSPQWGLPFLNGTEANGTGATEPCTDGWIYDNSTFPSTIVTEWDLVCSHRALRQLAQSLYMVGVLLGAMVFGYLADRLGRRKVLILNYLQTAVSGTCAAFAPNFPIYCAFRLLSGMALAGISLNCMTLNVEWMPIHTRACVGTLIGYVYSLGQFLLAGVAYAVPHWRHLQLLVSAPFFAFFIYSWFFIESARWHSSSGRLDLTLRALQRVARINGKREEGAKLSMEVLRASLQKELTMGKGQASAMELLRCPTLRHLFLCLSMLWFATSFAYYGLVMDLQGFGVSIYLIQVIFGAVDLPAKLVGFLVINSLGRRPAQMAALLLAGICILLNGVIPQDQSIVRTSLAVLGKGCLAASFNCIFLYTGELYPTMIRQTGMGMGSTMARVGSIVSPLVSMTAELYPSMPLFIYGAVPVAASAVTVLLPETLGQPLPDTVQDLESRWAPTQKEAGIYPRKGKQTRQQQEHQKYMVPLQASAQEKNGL
Experimental: as §1, §2, §3

[6] = system: OAT4; design: method as in Tan et al., 2017; details: ref Tan et al., 2017; cited from earlier work
[7] = system: OAT1; design: method as in Tan et al., 2017; details: ref Tan et al., 2017; cited from earlier work
[8] = system: OAT3; details: cited from earlier work
[9] = IC50, inhibition of enalaprilat uptake by selected drugs, HEK293-OAT3, enalaprilat 30 µM, 30 min preincubation, mean ± sd of three incubations

Structure (SMILES) | IC50 [1] [µM] | IC50 [1, 9] | also measured
O=c1cc(-c2ccc(O)cc2)oc2cc(O)cc(O)c12 [Apigenin] | 0.33 ± 0.09 |  | 
O=c1cc(-c2ccc(O)cc2)oc2cc(O[C@@H]3O[C@H](CO)[C@@H](O)[C@H](O)[C@H]3O)cc(O)c12 [Apigetrin] | 7.8 ± 4.03 |  | 
CCc1oc2ccccc2c1C(=O)c1cc(Br)c(O)c(Br)c1 [Benzbromarone] |  | 0.14 µM and < 1 µM | 
O=c1cc(-c2ccccc2)oc2cc(O)cc(O)c12 [Chrysin] | 0.044 ± 0.013 |  | 
O=c1c(-c2ccc(O)cc2)coc2cc(O)ccc12 [Daidzein] | 5.8 ± 3.96 |  | 
CCOC(=O)[C@H](CCc1ccccc1)N[C@@H](C)C(=O)N1CCC[C@H]1C(=O)O [Enalapril] |  |  | Plasma exposure, fold lower than that of enalaprilat ([2]; after enalapril administration, ref Li et al., 2017): about 4.5 fold; Excreted into the urine, % of the dose ([2]; ref Ulm et al., 1982): 18 % of the dose; Fraction of the dose converted to enalaprilat ([2]; oral enalapril, dose 10 mg, man, ref Ulm et al., 1982): about 40%; Transport by OAT3 (substrate status) ([3]; OAT3-transfected HEK293, Supplementary Figure 1): could also be transported by OAT3
C[C@H](N[C@@H](CCc1ccccc1)C(=O)O)C(=O)N1CCC[C@H]1C(=O)O [Enalaprilat] |  |  | Vmax [4]: 20.1 ± 2.7 nmol/min/mg protein; Vmax [5]: 42.4 ± 1.3 nmol/min/mg protein; Excreted into the urine, % of the dose ([2]; ref Ulm et al., 1982): 43 % of the dose; Vmax ([3]; OAT3-transfected HEK293, net uptake (mock subtracted), enalaprilat 0-500 μM, 5 min incubation): 87.4 ± 1.1 nmol/min/mg protein
O=C1C[C@@H](c2ccc(O)c(O)c2)Oc2cc(O)cc(O)c21 [Eriodictyol] | 1.48 ± 0.6 |  | 
Cc1nc(-c2ccc(OCC(C)C)c(C#N)c2)sc1C(=O)O [Febuxostat] |  | 0.41 ± 0.05 µM | 
O=c1c(O)c(-c2ccc(O)c(O)c2)oc2cc(O)ccc12 [Fisetin] | 3.82 ± 1.6 |  | 
O=c1c(O)c(-c2ccccc2)oc2cc(O)cc(O)c12 [Galangin] | 0.03 ± 0.026 |  | 
Cc1ccc(C)c(OCCCC(C)(C)C(=O)O)c1 [Gemfibrozil] |  | 3.5 ± 0.51 µM | 
CCC1=C(C)CN(C(=O)NCCc2ccc(S(=O)(=O)NC(=O)N[C@H]3CC[C@H](C)CC3)cc2)C1=O [Glimepiride] |  | 0.37 ± 0.04 µM | 
O=c1c(O)c(-c2ccc(O)c(O)c2)oc2c(O)c(O)cc(O)c12 [Gossypetin] | 0.71 ± 0.08 |  | 
O=c1c(O[C@@H]2O[C@H](CO)[C@@H](O)[C@H](O)[C@H]2O)c(-c2ccc(O)c(O)c2)oc2cc(O)cc(O)c12 [Isoquercetin] | 11.7 ± 2.06 |  | 
O=c1c(O)c(-c2ccc(O)cc2)oc2cc(O)cc(O)c12 [Kaempferol] | 0.088 ± 0.014 |  | 
O=c1c(O)c(-c2cc(O)c(O)c(O)c2)oc2cc(O)cc(O)c12 [Myricetin] | 22.6 ± 6.86 |  | 
CC(C)(Sc1ccncc1-c1ccc(C#N)c2ccccc12)C(=O)O [Verinurad] |  | 0.8 µM and < 1 µM | Affinity for OAT4, fold lower as compared to URAT1 [6]: approximately 200 fold; Affinity for OAT1, fold lower as compared to URAT1 [7]: approximately 200 fold
NNC(=O)c1ccncc1 [isoniazid] |  |  | Km ([8]; read-out: Km as OAT3 substrate, ref Parvez et al., 2018): 234 µM
O=S(=O)(O)CCS [mesna] |  |  | Km ([8]; read-out: Km as OAT3 substrate, ref Cutler et al., 2012): 390 µM
C=C1CC23CCC4C(C)(C(=O)OC5OC(C(=O)O)C(O)C(O)C5O)CCCC4(C)C2CCC1(O)C3 (centres unmarked) [steviol acyl glucuronide] |  |  | Km [8]: 368 µM

Continued, in another order:

IC50 [1] [µM] | IC50 [1, 9] | Structure (SMILES) | also measured
 | 0.8 µM and < 1 µM | O=C(O)CSc1nnc(Br)n1-c1ccc(C2CC2)c2ccccc12 [Lesinurad] | 
0.66 ± 0.11 |  | O=c1cc(-c2ccc(O)c(O)c2)oc2cc(O)cc(O)c12 [Luteolin] | 
1.22 ± 0.18 |  | CC(C)=CCc1c(-c2ccc(O)cc2O)oc2c(CC=C(C)C)c(O)cc(O)c2c1=O [Mulberrin] | 
0.22 ± 0.12 |  | COc1c(O)cc2oc(-c3ccccc3)cc(=O)c2c1O [Oroxylin A] | 
0.75 ± 0.37 |  | O=c1c(O)c(-c2ccc(O)c(O)c2)oc2cc(O)cc(O)c12 [Quercetin] | 
 | 2.1 ± 0.31 µM | CCOc1cc(CC(=O)N[C@@H](CC(C)C)c2ccccc2N2CCCCC2)ccc1C(=O)O [Repaglinide] | 
 | 0.95 ± 0.37 µM | O=C1C(CC[S+]([O-])c2ccccc2)C(=O)N(c2ccccc2)N1c1ccccc1 (centres unmarked) [Sulfinpyrazone] | 
7.02 ± 3.37 |  | O=C1c2c(O)cc(O)cc2OC(c2ccc(O)c(O)c2)C1O (centres unmarked) [Taxifolin] | 
 | 0.86 ± 0.22 µM | CCCc1nc2c(C)cc(-c3nc4ccccc4n3C)cc2n1Cc1ccc(-c2ccccc2C(=O)O)cc1 [Telmisartan] | 
 | 0.9 ± 0.09 µM | CCCCC(=O)N(Cc1ccc(-c2ccccc2-c2nnn[nH]2)cc1)[C@H](C(=O)O)C(C)C [Valsartan] | 
0.24 ± 0.04 |  | COc1c(O)cc(O)c2c(=O)cc(-c3ccccc3)oc12 [Wogonin] | 
11.7 ± 6.29 |  | COc1c(O[C@@H]2O[C@H](C(=O)O)[C@@H](O)[C@H](O)[C@H]2O)cc(O)c2c(=O)cc(-c3ccccc3)oc12 [Wogonoside] | 
